Test results: patent US11040108B2, “Amino acid- and peptide-steroid conjugates and use thereof” (BRANDEIS UNIVERSITY, priority 2016, dated 2021)
Like-named read-outs stand apart in the source and are kept apart here.

Columns and labels:
[1] = system: ER stress markers and ROS in A2780cis and HeLa cells; test: Western blot of ER stress markers and CLSM detection of ROS; type: cell-based, human; details: 1a 12.5 μM, 12 hours for ROS
Description: Further exploration of the mode of action of 1a against A2780cis and HeLa cells was carried out via Western blot for the following ER stress markers: CHOP, Bip, PDI, IRE1α, Calnexin, Erol-Lα, PERK, and β-actin; or p-SAPK/JNK. Western blot was carried out via gel electrophoresis at […] for 1.5 hrs, and then transferring the protein on the gel to PVDF membranes for overnight at […] (4° C.). After that, the membrane was incubated with primary antibodies (obtained from Cell Signaling Technology) overnight at 4° C. The membrane was then incubated with secondary antibodies for 1 h at room temperature. This was followed by the reaction with ECL solutions for 10 minutes, and analysis of the results by autoradiography. Generation of ROS was detected in CLSM images via DHE emissions in exposed cells. CLSM imaging was carried out at the excitation of 543 nm and DHE emission was detected at the wavelength at 575 nm to 625 nm; or detection of anti-phospho-SRC and anti-phospho-Akt.

[2] = system: A2780cis cell lines; test: Combination of 1a with other anti-cancer agents; type: cell-based, human; details: mixture of 1a with TIC10, Apo2L/TRAIL or doxorubicin
Description: In addition, 1a causes down regulation of cell survival proteins, Akt (Alexander, “Inhibiting the Akt Pathway in Cancer Treatment,” Pharmacy & Therapeutics 36(4): 225-227 (2011), which is hereby incorporated by reference in its entirety) and Src (Irby et al., “Role of Src Expression and Activation in Human Cancer,” Oncogene 19(49):5636-5642 (2000), which is hereby incorporated by reference in its entirety). Treatment of A2780cis cell lines with 1a (12.5 μM) for 24 hours downregulates expression of Src (FIGS. 13A-B) and Akt (FIGS. 13C-D). […] When used in combination with other anti-cancer agents, TIC10, Apo2L/TRAIL, and doxorubicin, a mixture of 1a with the individual anti-cancer agents was prepared, and then the cells were incubated with the mixture.

[3] = system: F-actin in A2780cis cells; test: Actin staining (CLSM), A2780cis; type: cell-based, human; details: 1a 12.5 μM, 12 hours
Description: Cells in exponential growth phase were seeded in confocal dish (3.5 cm) at 1×10^5 to 2×10^5 cells per dish. After putting the dish in incubator for 24 hours, culture medium was removed, and fresh medium containing precursor (12.5 μM 1a for A2780cis, 25 μM 1a for HeLa) was added. After 12 hours, the medium was removed and PBS was used to wash the cells for three times. After fixing by 4% paraformaldehyde for 15 minutes, 1 mL of 0.1% Triton X-100 in PBS buffer was added for 30 minutes. After washing the cells three times by PBS, 1 mL of 0.1% BSA in PBS was added for 30 minutes, and then the cells were washed by PBS for three times. 1 mL of PBS containing 5 unit of Alexa 633 was added to the cells for 1 hour. After removing the buffer and washing the cells three times by PBS, 1 mL of Hoechst (1 μg/mL) was added for 10 minutes. Then, the cells were washed three times with PBS buffer before imaging. […]

[4] = system: HS-5 cell line (human bone marrow stroma cell line); test: MTT assay, cell viability of HS-5; type: cell-based; details: for IC50: Homo sapiens, HS5, read-out: IC50 against HS-5
Description: HeLa, Saos-2, HS-5, HepG2, T98G, and A2780 cells were purchased from American-type Culture Collection (ATCC, USA). A2780cis cell was purchased from Sigma. HeLa cells, HepG-2 cells, and T98G cells were cultured in MEM Medium supplemented with 10% v/v fetal bovine serum, 100 U/mL penicillin, and 100 μg/mL streptomycin. Saos-2 cells were cultured in McCoy's 5a Medium (for Saos-2) supplemented with 15% v/v fetal bovine serum, 100 U/mL penicillin, and 100 μg/mL streptomycin. HS-5 cells were cultured in Dulbecco's Modified Eagle's medium (DMEM) supplemented with 10% v fetal bovine serum (FBS), 100 U/mL penicillin, and 100 μg/mL streptomycin. A2780cis cells were cultured in RPMI 1640 Medium supplemented with 10% v/v fetal bovine serum, 100 U/mL penicillin, and 100 μg/mL streptomycin (cisplatin only necessary every 2-3 passages). All cells were maintained at 37° C. in a humidified atmosphere of 5% CO2.
An MTT assay was used to test the cytotoxicity. All different cell lines were seeded in 96-well plates at 1×10^5 cells/well for 24 hours followed by removal of the culture medium and subsequent addition of culture medium containing different concentrations of the precursors. At designated time (24/48/72 hours), 10 μL MTT solution (5 mg/mL) was added to each well and incubated at 37° C. for another 4 hours, and then 100 μL of SDS-HCl solution was added to stop the reduction reaction and dissolve the purple formazan. The absorbance of each well at 595 nm was measured by a multimode microplate reader. The cytotoxicity assay was performed three times and the average value of the three measurements was taken.
To verify the selectivity of 1a against cancer cells, the HS-5 cell line (human bone marrow stroma cell line) was used; HS-5 hardly overexpresses ALP on cell surface. […] To further confirm that ALP on cell surface (i.e., as an ectophosphatase) contributed to the inhibitory activity of 1a, A2780cis were incubated with 1a and ALP (1 U/mL).
Additional cell viability assays were carried out using conjugates 1a and 1b, optionally with 3, against HepG2 human liver carcinoma cells, Saos-2 osteosarcoma cells, T98G glioblastoma cells, HS-5 (normal bone marrow stromal cells), A2780 ovarian cancer cells (parental line to A2780cis), and Kuramochi ovarian cancer cells. Conjugate 1a was particularly effective against ovarian and cervical cancer cells.

For `CC(C)CCC[C@@H](C)C1CC[C@H]2[C@@H]3CC=C4CC(OC(=O)NC(Cc5ccc(OP(=O)(O)O)cc5)C(=O)O)CC[C@]4(C)[C@H]3CC[C@]12C` (stereo partly drawn) [1a, Cholesterol-(phospho)D-Tyr], the “ER stress markers and ROS generation” value [1] was “induces cell apoptosis via ER stress and generation of ROS”, the “effect of combination treatments” value [2] was “synergistic effects” and the F-actin filaments [3] was “short, ill-defined actin filament”. The “cell viability / proliferation of HS-5” value ([4]; 12.5 μM, 48 hours (FIG. 5A)) was “innocuous”, the IC50 ([4]; 48 hours) was 32 µM and the IC50 ([4]; 72 hours) was 21 µM.
